Test results taken from patent publication US20040209283A1, “Continuous-read assay for the detection of de novo HCV RNA polymerase activity” (Pfizer Inc., priority 2002, published 2004).

Assays:
double-stranded NR-2 = experiment: Binding of PicoGreen to double-stranded NR-2 at varying buffer component concentrations (fluorescence intensity); conditions: for Fluorescence Intensity (% of control ± SD; n = 2): 7 nM double-stranded NR2, 600 nM PicoGreen; for effect on the binding of PicoGreen to the double-stranded template: at the concentrations tested
Experimental: To assess the effect of buffer component concentration on the binding of PicoGreen® to double-stranded NR-2, mixtures containing 7 nM double-stranded NR2, 600 nM PicoGreen®, and varying concentrations of the buffer components were prepared, and the fluorescence intensities of these mixtures were measured. These mixtures were prepared using between 4 fold less to 1.25 to 2 fold more of the individual buffer components (relative to the amount of the components used in the reactions described in Example 1).

C delta 21 NS5B = experiment: Continuous-read fluorescence assay of de novo NS5B polymerase activity; type: biochemical, Hepatitis C virus (HCV)
Experimental: Reactions were prepared by first placing 0.5 μL of 100% DMSO into the wells of an assay plate (Corning, black, 384-well, NBS #3654). In reactions in which modulators or inhibitors of RNA polymerase activity are to be identified, a test compound may be added to the DMSO. A solution (Solution-1) containing 162 nM of C delta 21 NS5B and 28 nM NR-2 in an assay buffer comprising 20 mM Tris-HCl, pH 7.5; 100 mM ammonium acetate; 2 mM MnCl2; 10 mM DTT; and 2 mM CHAPS, was then prepared and incubated at ambient temperature for a minimum of 15 minutes. During this incubation, a second solution (Solution-2) was prepared by mixing 76 nM of PicoGreen® with 2.7 μM UTP, 2.7 μM CTP, 2.7 μM ATP, 67 μM GTP in the assay buffer that is described above. Next, 10 μL of Solution-1 was added to the wells of the assay plate containing DMSO and the plate was incubated for 15 minutes at ambient temperature. […]
The reactions were monitored on a LJL Analyst (Molecular Devices Corp.; Sunnyvale, Calif.), which excited the PicoGreen® at 485 nm and detected PicoGreen® fluorescence at 530 nm.
The effect of increasing concentrations of PicoGreen® on reaction kinetics was also assessed. […] The calculated initial velocity (v0=span x kexp) increased as the concentration of PicoGreen® was increased from 50 to 600 nM, and appeared to plateau at between 600 and 800 nM PicoGreen® (FIG. 5C).

[1] = component final concentration 0.5 mM
[2] = component final concentration 1 mM
[3] = component final concentration 2 mM
[4] = component final concentration 4 mM

With `CC(=O)O.N` [Ammonium Acetate] the “inhibition of PicoGreen binding” value (double-stranded NR-2; at 100 mM) was 5%, the “inhibition of PicoGreen binding” value (double-stranded NR-2; at 125 mM) was 10% and the “Fluorescence Intensity (% of control ± SD; n = 2)” value (double-stranded NR-2; component final concentration 12.5 mM) was 105 ± 1 % of control. For the same compound, the “Fluorescence Intensity (% of control ± SD; n = 2)” value (double-stranded NR-2; component final concentration 25 mM) was 103 ± 1 % of control, the “Fluorescence Intensity (% of control ± SD; n = 2)” value (double-stranded NR-2; component final concentration 50 mM) was 109 ± 1 % of control and the “Fluorescence Intensity (% of control ± SD; n = 2)” value (double-stranded NR-2; component final concentration 100 mM) was 95 ± 1 % of control. The “Fluorescence Intensity (% of control ± SD; n = 2)” value (double-stranded NR-2; component final concentration 125 mM) was 89 ± 2 % of control and the “effect on NS5B activity” value (C delta 21 NS5B; 100 mM ammonium acetate) was “appeared to enhance NS5B activity”.

`C[C@H](CCC(=O)NCCC[N+](C)(C)CCCS(=O)(=O)[O-])[C@H]1CC[C@H]2[C@@H]3[C@H](O)C[C@@H]4C[C@H](O)CC[C@]4(C)[C@H]3C[C@H](O)[C@]12C` [CHAPS] was tested, and the “effect on the binding of PicoGreen to the double-stranded template” value (double-stranded NR-2) was “Neither DTT nor chaps affected the binding”, the “Fluorescence Intensity (% of control ± SD; n = 2)” value (double-stranded NR-2; [1]) was 98 ± 3 % of control and the “Fluorescence Intensity (% of control ± SD; n = 2)” value (double-stranded NR-2; [2]) was 96 ± 1 % of control. For the same compound, the “Fluorescence Intensity (% of control ± SD; n = 2)” value (double-stranded NR-2; [3]) was 96 ± 1 % of control and the “Fluorescence Intensity (% of control ± SD; n = 2)” value (double-stranded NR-2; [4]) was 102 ± 1 % of control.

For `CN(C)CCCN(CCCN(C)C)c1cc(C=C2Sc3ccccc3N2C)c2ccccc2[n+]1-c1ccccc1` [PicoGreen®, reference compound], the “change of experimental rate constant (kexp) of the first-order reaction” value (C delta 21 NS5B; at 600 nM PicoGreen) was “slightly less than a two-fold decrease”.

In the case of `O[C@@H](CS)[C@@H](O)CS` [DTT], the “effect on the binding of PicoGreen to the double-stranded template” value (double-stranded NR-2) is reported as “Neither DTT nor chaps affected the binding”, the “Fluorescence Intensity (% of control ± SD; n = 2)” value (double-stranded NR-2; component final concentration 2.5 mM) is reported as 98 ± 5 % of control and the “Fluorescence Intensity (% of control ± SD; n = 2)” value (double-stranded NR-2; component final concentration 5 mM) is reported as 100 ± 2 % of control. For the same compound, the “Fluorescence Intensity (% of control ± SD; n = 2)” value (double-stranded NR-2; component final concentration 10 mM) was 100 ± 1 % of control and the “Fluorescence Intensity (% of control ± SD; n = 2)” value (double-stranded NR-2; component final concentration 20 mM) was 96 ± 3 % of control.

With `[Cl][Mn][Cl]` [MnCl2] the “inhibition of the binding of PicoGreen to the template” value (double-stranded NR-2; at 2 mM) was “approximately 35%”, the “inhibition of the binding of PicoGreen to the template” value (double-stranded NR-2; at 4 mM) was roughly 55% and the “Fluorescence Intensity (% of control ± SD; n = 2)” value (double-stranded NR-2; [1]) was 96 ± 2 % of control. For the same compound, the “Fluorescence Intensity (% of control ± SD; n = 2)” value (double-stranded NR-2; [2]) was 82 ± 1 % of control, the “Fluorescence Intensity (% of control ± SD; n = 2)” value (double-stranded NR-2; [3]) was 65 ± 1 % of control and the “Fluorescence Intensity (% of control ± SD; n = 2)” value (double-stranded NR-2; [4]) was 45 ± 2 % of control.
